Reference: patent publication US10494332B2, “Protein tyrosine phosphatases or SHP2 inhibitors and uses thereof” (Indiana University Research and Technology Corporation, priority 2015, dated 2019)
“Also recorded” adds a separate entry of the source.

Assays:
LMWPTP = molecular target: T1, LMWPTP (Homo sapiens, UniProt P24666); experiment: PTP inhibition assay (pNPP); format: biochemical; settings: pNPP at Km, pH 7.0, 25° C.
T1 sequence (P24666 1-158): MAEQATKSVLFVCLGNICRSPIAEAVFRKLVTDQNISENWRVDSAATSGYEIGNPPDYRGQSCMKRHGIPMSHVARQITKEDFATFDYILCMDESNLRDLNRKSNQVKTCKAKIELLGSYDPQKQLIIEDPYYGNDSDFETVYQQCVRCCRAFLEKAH

mPTPA = mPTPA (Mycobacterium tuberculosis, UniProt P9WIA1); experiment: biochemical; settings: IC50 mPTPA
PP5 = molecular target: T2, PP5 (Homo sapiens, UniProt P53041); experiment: biochemical
T2 sequence (P53041 1-499): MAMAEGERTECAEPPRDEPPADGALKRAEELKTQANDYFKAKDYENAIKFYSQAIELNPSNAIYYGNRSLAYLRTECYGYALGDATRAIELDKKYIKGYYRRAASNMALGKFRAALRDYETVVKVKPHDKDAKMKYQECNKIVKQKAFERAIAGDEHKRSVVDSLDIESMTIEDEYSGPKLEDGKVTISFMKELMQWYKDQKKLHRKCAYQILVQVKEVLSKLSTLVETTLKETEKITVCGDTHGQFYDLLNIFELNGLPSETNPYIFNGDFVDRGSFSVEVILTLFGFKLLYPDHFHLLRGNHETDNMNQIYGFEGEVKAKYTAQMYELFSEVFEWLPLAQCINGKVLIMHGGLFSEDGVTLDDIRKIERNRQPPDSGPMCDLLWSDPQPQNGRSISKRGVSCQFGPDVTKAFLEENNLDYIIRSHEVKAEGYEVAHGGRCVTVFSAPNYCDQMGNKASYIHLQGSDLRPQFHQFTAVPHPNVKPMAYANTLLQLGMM

[1] = test system: H1975 non-small cell lung cancer (NSCLC) cell line; experiment: MTT cell proliferation assay; format: cell-based, human; settings: 20 μM and 40 μM, 2 days
Method: (§1) Human non-small cell lung carcinoma cell line H1975 was cultured at 37° C. and 5% CO2 in RPMI-1640 (Corning) supplemented with 10% fetal bovine serum (HyClone). Human breast cancer cell line MDA-MB-231 was cultured in DMEM supplemented with 10% fetal bovine serum. For cell proliferation assay, 2˜3×10^3 cells were seeded in each well of 96-well plates. After treating cells with compounds for 2 days, cells were incubated with 50 μg/ml MTT (3-(4,5-Dimethylthiazol-2-yl)-2,5-diphenyltetrazolium bromide) for ˜3-4 hours. Then, the culture medium was removed, DMSO was added to dissolve the formazan crystals. Wells containing only media were used for background correction. The optical density was measured spectrophotometrically at 540 nm. For signaling analysis, cells were serum-starved overnight followed by treatment with vehicle or compounds for 3 hours, and then either left un-stimulated or stimulated with 5 μg/ml EGF or 10 nM PMA (Sigma) for indicated time. Cells were lysed and the lysates were electrophoresed on a 10% polyacrylamide gel, and then transferred to a nitrocellulose membrane, and probed with anti-phospho-ERK1/2 and anti-ERK1/2 (Cell Signaling) antibodies followed by incubation with horseradish peroxidase-conjugated secondary antibodies. The blots were developed by the enhanced chemiluminescence technique using the SuperSignal West Pico Chemiluminescent substrate (Pierce).

SHP2 [2] = molecular target: T3, SHP2 (Homo sapiens, UniProt Q06124); experiment: SHP2 phosphatase inhibition assay (pNPP); format: biochemical; settings: for IC50: Example 9: SHP2 catalytic domain 20 nM, pNPP 3 mM, pH 7.0, 25° C., read-out: IC50 SHP2
T3 sequence (Q06124 224-528): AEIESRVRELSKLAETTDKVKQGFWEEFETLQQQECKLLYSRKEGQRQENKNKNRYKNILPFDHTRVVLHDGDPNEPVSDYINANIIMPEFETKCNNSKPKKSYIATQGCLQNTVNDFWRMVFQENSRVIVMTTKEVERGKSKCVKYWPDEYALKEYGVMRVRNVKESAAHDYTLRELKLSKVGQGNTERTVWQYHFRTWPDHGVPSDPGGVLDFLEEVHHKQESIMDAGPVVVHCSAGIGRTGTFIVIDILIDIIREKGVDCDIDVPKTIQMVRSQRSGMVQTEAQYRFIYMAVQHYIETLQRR

PTPμ = PTPμ (Homo sapiens, UniProt P28827); experiment: biochemical
[3] = test system: MDA-MB-231 breast cancer cell line; experiment: MTT cell proliferation assay; format: cell-based, human; settings: 20 μM and 40 μM, 2 days
Method: as §1

[4] = test system: EGF-mediated ERK1/2 phosphorylation in H1975 cells; experiment: EGF-induced ERK1/2 phosphorylation immunoblot; format: cell-based, human; settings: compound 7 at 40 μM
Method: as §1

TbPTP1 = TbPTP1 (Trypanosoma brucei brucei, UniProt Q38AT7); experiment: PTP inhibition assay (pNPP); format: biochemical; settings: pNPP at Km, pH 7.0, 25° C.; read-out: IC50 TbPTP1
FAP1 = FAP1 (Homo sapiens, UniProt Q12923); experiment: PTP inhibition assay (pNPP); format: biochemical; settings: IC50 FAP1
Ssu72 = molecular target: T4, Ssu72 (Homo sapiens, UniProt Q9NP77); experiment: PTP inhibition assay (pNPP); format: biochemical; settings: IC50 Ssu72
T4 sequence (Q9NP77 1-194): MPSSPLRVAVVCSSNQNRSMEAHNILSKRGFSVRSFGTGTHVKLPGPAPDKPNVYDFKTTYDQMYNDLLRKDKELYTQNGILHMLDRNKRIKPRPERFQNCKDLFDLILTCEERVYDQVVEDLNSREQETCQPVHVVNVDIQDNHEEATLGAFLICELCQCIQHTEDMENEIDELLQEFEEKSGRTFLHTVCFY

VHX = molecular target: T5, VHX (Homo sapiens, UniProt Q9NRW4); experiment: PTP inhibition assay (pNPP); format: biochemical; settings: IC50 VHX, pNPP at Km, pH 7.0, 25° C.
T5 sequence (Q9NRW4 1-184): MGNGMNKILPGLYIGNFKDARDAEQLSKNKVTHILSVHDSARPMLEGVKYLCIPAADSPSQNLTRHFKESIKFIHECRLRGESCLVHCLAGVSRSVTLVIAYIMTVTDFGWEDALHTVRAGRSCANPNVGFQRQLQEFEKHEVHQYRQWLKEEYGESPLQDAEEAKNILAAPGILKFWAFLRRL

PEST = molecular target: T6, PEST (Homo sapiens, UniProt Q05209); experiment: PTP inhibition assay (pNPP); format: biochemical; settings: IC50 PEST
T6 sequence (Q05209 1-780): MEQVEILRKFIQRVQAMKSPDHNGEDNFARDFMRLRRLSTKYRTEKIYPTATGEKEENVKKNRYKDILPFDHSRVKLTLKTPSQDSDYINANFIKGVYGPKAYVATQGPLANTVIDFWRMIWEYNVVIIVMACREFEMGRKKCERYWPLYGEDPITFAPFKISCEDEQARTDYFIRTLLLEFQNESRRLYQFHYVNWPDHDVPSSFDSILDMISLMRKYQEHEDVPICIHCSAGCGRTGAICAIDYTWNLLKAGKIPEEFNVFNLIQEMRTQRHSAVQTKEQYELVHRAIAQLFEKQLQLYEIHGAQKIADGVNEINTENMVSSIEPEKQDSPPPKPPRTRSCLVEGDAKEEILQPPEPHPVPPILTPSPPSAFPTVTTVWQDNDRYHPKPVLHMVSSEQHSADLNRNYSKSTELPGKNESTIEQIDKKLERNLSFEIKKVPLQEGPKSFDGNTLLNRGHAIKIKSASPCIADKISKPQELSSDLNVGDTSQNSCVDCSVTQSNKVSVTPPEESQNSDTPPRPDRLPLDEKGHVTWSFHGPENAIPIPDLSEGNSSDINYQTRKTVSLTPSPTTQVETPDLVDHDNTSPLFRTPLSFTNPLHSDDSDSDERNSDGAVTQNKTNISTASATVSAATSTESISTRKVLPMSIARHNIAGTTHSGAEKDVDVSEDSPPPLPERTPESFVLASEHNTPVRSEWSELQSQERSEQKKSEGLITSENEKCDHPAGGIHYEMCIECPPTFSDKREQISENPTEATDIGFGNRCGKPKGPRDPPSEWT

SHP2 [5] = molecular target: SHP2 (Homo sapiens, UniProt Q06124); experiment: Covalent modification of SHP2 by QTOF ESI-MS / LC-MS; settings: 100 μM compound; cefsulodin three hours, phenyl vinyl sulfone 10 minutes
Method: Agilent 6520 Accurate-Mass was used for the Q-TOF ESI-MS studies. Water and acetonitrile (both containing 0.1% formic acid) were used as eluent (80% water, flow 50 μL/min, run time 5 minutes). ESI positive mode was used with mass range from 300 to 1700, the gas temperature was 325° C., and vaporizer temperature was: […]. The sample was adjusted to have a concentration at 0.1 mg/mL, the injection volume of each sample was 1 μL. Mass hunter software was used for protein deconvolution data analysis to calculate the molecular weight of the protein.
Agilent Technologies 6130 quadrupole LC-MS instrument was used for the LC-MS studies. A C18 reserved phase column (phenomenex, 50×4.6 mm) was used as stationary phase, water and methanol (both containing 0.1% formic acid) were used as mobile phase (gradient: 0-100% methanol, flow 0.8 mL/min, run time 15 minutes), and UV absorbance at the fixed wavelength of 254 nm and positive and negative ESI-MS data were recorded. The sample was adjusted to have a concentration at 0.1 mg/mL, and the injection volume of each sample was 0.2 μL. The retention time and corresponding ESI-MS data were used as identity of molecules.

PTPμ, sequence (P28827 21-1452): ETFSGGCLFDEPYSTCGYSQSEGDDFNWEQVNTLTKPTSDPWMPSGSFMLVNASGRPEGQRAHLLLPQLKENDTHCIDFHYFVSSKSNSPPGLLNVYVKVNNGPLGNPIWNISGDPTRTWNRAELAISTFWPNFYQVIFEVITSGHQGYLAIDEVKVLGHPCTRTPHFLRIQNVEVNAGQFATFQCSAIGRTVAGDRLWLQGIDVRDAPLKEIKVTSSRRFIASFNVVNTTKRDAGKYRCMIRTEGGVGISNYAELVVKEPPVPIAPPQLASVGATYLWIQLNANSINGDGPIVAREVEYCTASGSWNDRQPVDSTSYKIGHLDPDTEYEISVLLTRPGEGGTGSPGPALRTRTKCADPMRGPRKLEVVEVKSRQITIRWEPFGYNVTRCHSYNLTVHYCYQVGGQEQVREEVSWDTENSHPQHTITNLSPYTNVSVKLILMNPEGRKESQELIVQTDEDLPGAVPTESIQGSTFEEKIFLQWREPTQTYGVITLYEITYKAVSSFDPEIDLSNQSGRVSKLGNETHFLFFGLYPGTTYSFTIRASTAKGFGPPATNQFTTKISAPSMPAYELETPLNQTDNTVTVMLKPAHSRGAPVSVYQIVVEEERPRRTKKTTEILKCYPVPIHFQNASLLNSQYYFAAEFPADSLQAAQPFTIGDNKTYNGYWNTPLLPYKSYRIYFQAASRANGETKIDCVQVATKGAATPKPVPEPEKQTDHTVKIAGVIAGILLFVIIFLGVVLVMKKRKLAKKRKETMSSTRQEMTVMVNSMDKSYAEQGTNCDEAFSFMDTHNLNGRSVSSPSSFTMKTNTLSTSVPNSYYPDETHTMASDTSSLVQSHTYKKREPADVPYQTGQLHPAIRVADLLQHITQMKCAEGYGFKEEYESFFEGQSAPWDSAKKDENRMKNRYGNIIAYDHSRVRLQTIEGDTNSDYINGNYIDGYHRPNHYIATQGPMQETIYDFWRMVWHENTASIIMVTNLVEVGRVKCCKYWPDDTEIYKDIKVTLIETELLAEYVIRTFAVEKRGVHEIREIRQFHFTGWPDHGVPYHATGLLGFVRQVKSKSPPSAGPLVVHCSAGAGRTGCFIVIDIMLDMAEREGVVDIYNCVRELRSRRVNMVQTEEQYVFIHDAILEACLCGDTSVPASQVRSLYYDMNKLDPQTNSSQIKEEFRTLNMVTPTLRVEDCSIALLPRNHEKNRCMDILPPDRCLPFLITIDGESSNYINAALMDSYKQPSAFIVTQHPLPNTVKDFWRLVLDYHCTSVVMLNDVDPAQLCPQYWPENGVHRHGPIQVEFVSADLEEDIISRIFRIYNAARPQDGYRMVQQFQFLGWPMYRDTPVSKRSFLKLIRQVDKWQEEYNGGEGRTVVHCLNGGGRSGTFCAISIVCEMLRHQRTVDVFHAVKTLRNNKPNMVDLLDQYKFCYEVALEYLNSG
TbPTP1, sequence (Q38AT7 entry or part of it): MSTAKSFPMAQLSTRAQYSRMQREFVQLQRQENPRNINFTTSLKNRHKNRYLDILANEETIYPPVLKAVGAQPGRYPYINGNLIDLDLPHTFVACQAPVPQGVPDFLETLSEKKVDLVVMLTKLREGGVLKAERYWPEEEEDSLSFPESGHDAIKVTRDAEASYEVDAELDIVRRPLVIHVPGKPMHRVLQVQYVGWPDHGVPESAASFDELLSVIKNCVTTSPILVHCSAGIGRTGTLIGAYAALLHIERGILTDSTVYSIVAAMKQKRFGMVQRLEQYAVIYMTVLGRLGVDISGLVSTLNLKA
FAP1, sequence (Q12923 whole entry): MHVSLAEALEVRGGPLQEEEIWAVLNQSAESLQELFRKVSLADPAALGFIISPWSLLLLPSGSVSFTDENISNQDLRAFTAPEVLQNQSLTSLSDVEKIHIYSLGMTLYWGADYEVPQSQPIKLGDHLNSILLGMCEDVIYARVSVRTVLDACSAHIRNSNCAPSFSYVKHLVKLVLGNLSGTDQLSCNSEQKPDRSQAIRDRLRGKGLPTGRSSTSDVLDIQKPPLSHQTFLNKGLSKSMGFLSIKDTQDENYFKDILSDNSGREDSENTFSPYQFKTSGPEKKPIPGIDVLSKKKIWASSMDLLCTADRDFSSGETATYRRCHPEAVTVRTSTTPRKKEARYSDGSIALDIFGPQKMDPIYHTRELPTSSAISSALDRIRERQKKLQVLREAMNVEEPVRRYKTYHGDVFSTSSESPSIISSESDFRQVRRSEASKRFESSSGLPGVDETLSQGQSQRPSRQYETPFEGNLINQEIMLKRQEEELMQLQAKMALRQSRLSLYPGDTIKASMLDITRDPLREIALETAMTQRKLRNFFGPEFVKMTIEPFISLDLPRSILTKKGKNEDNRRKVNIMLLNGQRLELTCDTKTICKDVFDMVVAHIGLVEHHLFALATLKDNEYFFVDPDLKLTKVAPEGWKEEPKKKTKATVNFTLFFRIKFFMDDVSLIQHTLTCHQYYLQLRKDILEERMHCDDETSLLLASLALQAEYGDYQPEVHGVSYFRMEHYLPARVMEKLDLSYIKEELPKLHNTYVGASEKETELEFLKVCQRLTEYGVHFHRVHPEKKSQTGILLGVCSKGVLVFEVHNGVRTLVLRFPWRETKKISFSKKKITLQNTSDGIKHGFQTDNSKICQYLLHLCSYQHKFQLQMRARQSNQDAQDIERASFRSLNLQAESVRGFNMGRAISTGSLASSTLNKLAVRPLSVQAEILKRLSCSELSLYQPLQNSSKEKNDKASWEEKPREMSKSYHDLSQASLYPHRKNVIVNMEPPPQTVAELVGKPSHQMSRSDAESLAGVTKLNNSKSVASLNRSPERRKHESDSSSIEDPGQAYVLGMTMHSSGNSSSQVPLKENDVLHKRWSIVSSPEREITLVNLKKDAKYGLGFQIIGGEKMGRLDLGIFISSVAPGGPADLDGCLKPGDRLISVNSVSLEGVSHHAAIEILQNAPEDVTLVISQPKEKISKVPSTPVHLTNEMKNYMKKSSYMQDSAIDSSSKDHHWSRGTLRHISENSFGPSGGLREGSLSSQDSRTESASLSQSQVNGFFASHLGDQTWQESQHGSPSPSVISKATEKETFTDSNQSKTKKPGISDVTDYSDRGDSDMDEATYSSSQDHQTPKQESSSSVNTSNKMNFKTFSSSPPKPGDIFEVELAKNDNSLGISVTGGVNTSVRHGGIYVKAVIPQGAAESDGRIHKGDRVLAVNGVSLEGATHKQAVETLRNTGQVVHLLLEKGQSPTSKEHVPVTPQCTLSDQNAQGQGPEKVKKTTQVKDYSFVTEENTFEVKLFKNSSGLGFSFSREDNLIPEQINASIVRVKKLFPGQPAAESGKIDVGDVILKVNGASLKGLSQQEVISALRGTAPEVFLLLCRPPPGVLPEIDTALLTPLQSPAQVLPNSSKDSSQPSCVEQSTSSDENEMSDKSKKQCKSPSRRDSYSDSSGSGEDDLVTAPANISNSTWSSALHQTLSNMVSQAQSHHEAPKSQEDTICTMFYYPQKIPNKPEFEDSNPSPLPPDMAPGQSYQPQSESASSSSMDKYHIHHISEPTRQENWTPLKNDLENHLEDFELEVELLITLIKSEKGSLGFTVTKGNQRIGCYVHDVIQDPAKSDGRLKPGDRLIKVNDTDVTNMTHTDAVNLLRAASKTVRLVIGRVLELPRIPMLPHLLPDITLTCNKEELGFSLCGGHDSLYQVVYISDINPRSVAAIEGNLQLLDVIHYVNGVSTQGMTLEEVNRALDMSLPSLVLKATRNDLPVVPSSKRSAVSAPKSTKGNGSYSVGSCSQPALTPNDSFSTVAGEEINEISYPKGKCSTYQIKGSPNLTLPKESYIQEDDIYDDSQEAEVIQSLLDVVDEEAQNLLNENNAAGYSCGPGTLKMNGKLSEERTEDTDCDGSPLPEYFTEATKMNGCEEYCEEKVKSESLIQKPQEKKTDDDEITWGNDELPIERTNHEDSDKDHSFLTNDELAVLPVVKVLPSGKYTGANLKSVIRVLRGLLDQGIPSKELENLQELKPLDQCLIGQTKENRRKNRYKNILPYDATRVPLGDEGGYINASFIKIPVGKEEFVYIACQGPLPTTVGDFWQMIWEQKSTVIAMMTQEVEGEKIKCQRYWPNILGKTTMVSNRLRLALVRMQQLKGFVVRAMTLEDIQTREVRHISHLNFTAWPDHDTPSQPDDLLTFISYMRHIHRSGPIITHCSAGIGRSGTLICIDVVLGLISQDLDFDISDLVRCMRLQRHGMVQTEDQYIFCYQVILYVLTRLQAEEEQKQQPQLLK
mPTPA, sequence (P9WIA1 whole entry): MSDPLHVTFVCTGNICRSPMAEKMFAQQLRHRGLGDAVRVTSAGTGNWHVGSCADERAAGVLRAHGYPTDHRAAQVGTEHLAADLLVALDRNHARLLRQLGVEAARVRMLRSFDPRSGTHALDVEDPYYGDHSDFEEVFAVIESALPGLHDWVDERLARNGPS

O=C(CS(=O)(=O)O)Nc1ccc(N2CCOCC2)cc1
IC50 (LMWPTP): 63 µM | IC50 (mPTPA): 2.2 µM

O=C(Nc1ccc(NC(=O)C(c2ccccc2)S(=O)(=O)O)cc1)C(=O)Nc1ccc(-c2cccs2)cc1 (stereo not drawn) [Compound 3, 2-oxo-2-((4-(2-oxo-2-((4-(thiophen-2-yl)phenyl)amino)acetamido)phenyl)amino)-1-phenylethanesulfonic acid]
IC50 (PP5): > 10 µM | H1975 cell proliferation (MTT) [1]: no significant effect | IC50 (SHP2 [2]): 0.9 µM | IC50 (PTPμ): > 10 µM

O=C(Nc1ccc(NC(=O)C(c2ccccc2)S(=O)(=O)O)cc1)C(=O)Nc1cc(-c2ccc(Br)cc2)n[nH]1 (stereo not drawn) [Compound 4, 2-((4-(2-((3-(4-bromophenyl)-1H-pyrazol-5-yl)amino)-2-oxoacetamido)phenyl)amino)-2-oxo-1-phenylethanesulfonic acid]
IC50 (PP5): > 10 µM | H1975 cell proliferation (MTT) [1]: no significant effect | IC50 (SHP2 [2]): 0.73 ± 0.02 µM | Fold selectivity for SHP2 against PTPs examined (SHP2 [2]; cefsulodin: with the exception of SHP1): ≥ 8 fold | IC50 (PTPμ): > 10 µM

O=C(Nc1ccc(NC(=O)C(c2ccccc2)S(=O)(=O)O)cc1)C(=O)Nc1ccc(-c2ccccc2)cc1 (stereo not drawn) [Compound 5, 2-((4-(2-([1,1′-biphenyl]-4-ylamino)-2-oxoacetamido)phenyl)amino)-2-oxo-1-phenylethanesulfonic acid]
IC50 (PP5): > 10 µM | MDA-MB-231 cell survival/growth (MTT) [3]: significantly (**p<0.01) reduced cell survival | H1975 cell proliferation (MTT) [1]: reduce H1975 cell proliferation in a dose dependent manner; also recorded: significantly (**p<0.01) reduced cell proliferation | IC50 (SHP2 [2]): 1.36 ± 0.04 µM | IC50 (PTPμ): > 10 µM

CC(C)c1ccc(NC(=O)C(=O)Nc2ccc(NC(=O)C(c3ccccc3)S(=O)(=O)O)cc2)cc1 (stereo not drawn) [Compound 6, 2-((4-(2-((4-isopropylphenyl)amino)-2-oxoacetamido)phenyl)amino)-2-oxo-1-phenylethanesulfonic acid]
MDA-MB-231 cell survival/growth (MTT) [3]: significantly (**p<0.01) reduced cell survival | H1975 cell proliferation (MTT) [1]: reduce H1975 cell proliferation in a dose dependent manner; also recorded: significantly (**p<0.01) reduced cell proliferation | IC50 (SHP2 [2]): 2.33 ± 0.04 µM

O=C(Nc1ccccc1)C(=O)Nc1ccc(NC(=O)C(c2ccccc2)S(=O)(=O)O)cc1 (stereo not drawn) [Compound 7, 2-oxo-2-((4-(2-oxo-2-(phenylamino)acetamido)phenyl)amino)-1-phenylethanesulfonic acid]
MDA-MB-231 cell survival/growth (MTT) [3]: did not | H1975 cell proliferation (MTT) [1]: ineffective; also recorded: did not | Inhibition of SHP2 at 50 μM (SHP2 [2]; 50 μM): no inhibition | IC50 (SHP2 [2]): > 50 µM | Effect on EGF-mediated ERK1/2 phosphorylation [4]: no appreciable effect; also recorded: failed to block EGF-mediated ERK1/2 phosphorylation

O=C(Nc1ccc(OCc2ccccc2)c(Cl)c1)C(=O)Nc1ccccc1NC(=O)C(c1ccccc1)S(=O)(=O)O (stereo not drawn) [Compound L319-21-M50]
IC50 (TbPTP1): > 50 µM | IC50 (FAP1): 39 µM | IC50 (Ssu72): > 50 µM | IC50 (VHX): > 50 µM | IC50 (PEST): > 50 µM

C=CS(=O)(=O)c1ccccc1 [phenyl vinyl sulfone]
Covalent adduct formation with SHP2 (QTOF ESI-MS) (SHP2 [5]): formed a covalent adduct
